Data reported in patent US4134792A, “Specific binding assay with an enzyme modulator as a labeling substance” (Miles Laboratories, Inc., priority 1976, dated 1979).
Like-named read-outs stand apart in the source and are kept apart here.

Experiments:
uricase = settings: approximation; competitive inhibitor; read-out: inhibitor constant (Ki); cited from earlier work
[1] = test system: NAD-isocitric dehydrogenase; design: key: inhibitory or negative effectors are indicated by (-); stimulatory or positive effectors are indicated by (+); settings: yeast; cited from earlier work
phosphorylase b = test system: phosphorylase b; design: key: inhibitory or negative effectors are indicated by (-); stimulatory or positive effectors are indicated by (+); settings: rabbit muscle; cited from earlier work
[2] = test system: fructose-1,6-diphosphatase; design: key: inhibitory or negative effectors are indicated by (-); stimulatory or positive effectors are indicated by (+); settings: frog muscle and rat liver; cited from earlier work
L-threonine deaminase = test system: L-threonine deaminase; design: key: inhibitory or negative effectors are indicated by (-); stimulatory or positive effectors are indicated by (+); settings: C. tetanomorphum; cited from earlier work
glutamate dehydrogenase = test system: glutamate dehydrogenase; design: key: inhibitory or negative effectors are indicated by (-); stimulatory or positive effectors are indicated by (+); settings: beef liver; cited from earlier work
[3] = test system: aspartate transcarbamylase; design: key: inhibitory or negative effectors are indicated by (-); stimulatory or positive effectors are indicated by (+); settings: E. coli; cited from earlier work
phosphofructokinase = settings: guinea pig heart; cited from earlier work
carbonic anhydrase [4] = assay: Esterase activities of carbonic anhydrase as a function of acetazolamide concentration (Example 2); type: biochemical, human; settings: for Hydrolysis Rate: pH 7.4, enzyme 0.013 IU
carbonic anhydrase [5] = assay: Competitive binding assay for dinitrophenyl (DNP) derivatives; carbonic anhydrase esterase readout (Example 5); type: biochemical, human; settings: for effect on the carbonic anhydrase reaction (in words): Table 4; for effect of antibody to DNP on inhibition (in words): presence of antibody to DNP
Description: (§1) Further dilutions were with water.
as §1
(4) Antibody to Dinitrophenyl (DNP) Reagent - Antisera raised against DNP was chromatographed at 4° C. on a 5 × 70 cm column of Sephadex G-200 (Pharmacia AB, Uppsala, Sweden) with 0.1 M Tris-HCl buffer, pH 8.2, containing 1 M sodium chloride.

[6] = test system: biosynthetic L-threonine deaminase; design: key: inhibitory or negative effectors are indicated by (-); stimulatory or positive effectors are indicated by (+); settings: E. coli K12 and yeast; cited from earlier work
homoserine dehydrogenase [7] = test system: homoserine dehydrogenase; design: key: inhibitory or negative effectors are indicated by (-); stimulatory or positive effectors are indicated by (+); settings: R. rubrum; cited from earlier work
lysine aspartokinase = test system: lysine aspartokinase; design: key: inhibitory or negative effectors are indicated by (-); stimulatory or positive effectors are indicated by (+); settings: E. coli; cited from earlier work
threonine aspartokinase = test system: threonine aspartokinase; design: key: inhibitory or negative effectors are indicated by (-); stimulatory or positive effectors are indicated by (+); settings: E. coli; cited from earlier work
homoserine dehydrogenase [8] = test system: homoserine dehydrogenase; design: key: inhibitory or negative effectors are indicated by (-); stimulatory or positive effectors are indicated by (+); settings: E. coli; cited from earlier work
acetolactate synthetase = test system: acetolactate synthetase; design: key: inhibitory or negative effectors are indicated by (-); stimulatory or positive effectors are indicated by (+); settings: E. coli; cited from earlier work
acetylcholinesterase = settings: cited from earlier work; for inhibition of acetylcholinesterase (in words): effective analogs of listed inhibitors
carbonic anhydrase [9] = assay: Direct binding assay for avidin; competitive binding assay for biotin; carbonic anhydrase esterase readout (Example 4); type: biochemical, human
Description: as §1
The results of reaction mixtures 2 through 9 are presented in graphical form in FIG. 2 of the drawing.

[10] = test system: nicotinamide adenine dinucleotide (NAD)-isocitric dehydrogenase; design: key: inhibitory or negative effectors are indicated by (-); stimulatory or positive effectors are indicated by (+); settings: N. crassa; cited from earlier work
[11] = test system: UDP-N-acetyl-glucosamine-2-epimerase; design: key: inhibitory or negative effectors are indicated by (-); stimulatory or positive effectors are indicated by (+); settings: rat liver; cited from earlier work
deoxythymidine kinase = test system: deoxythymidine kinase; design: key: inhibitory or negative effectors are indicated by (-); stimulatory or positive effectors are indicated by (+); settings: E. coli; cited from earlier work
[12] = test system: deoxycytidylate aminohydrolase; design: key: inhibitory or negative effectors are indicated by (-); stimulatory or positive effectors are indicated by (+); settings: ass spleen; cited from earlier work
[13] = test system: L-glutamine-D-fructose-6-phosphate transaminase; design: key: inhibitory or negative effectors are indicated by (-); stimulatory or positive effectors are indicated by (+); settings: rat liver; cited from earlier work

For `Clc1nc(Cl)c2[nH]c(Cl)nc2n1` [2,6,8-trichloropurine, 2,6,8-Trichloropurine], the Ki (uricase) is listed as roughly 1000 nM.

For `Nc1ncnc2c1ncn2[C@@H]1O[C@H](COP(=O)(O)O)[C@@H](O)[C@H]1O` [5'-AMP], the “allosteric effector: inhibitory (-) or stimulatory (+)” value (“allosteric effector: inhibitory” for short) [1] is listed as “+”, the “allosteric effector: inhibitory” value (phosphorylase b) is listed as “+” and the “allosteric effector: inhibitory” value [2] is listed as “-”.

In the case of `Nc1ncnc2c1ncn2[C@@H]1O[C@H](COP(=O)(O)OP(=O)(O)O)[C@@H](O)[C@H]1O` [ADP, addenosine diphosphate], the “allosteric effector: inhibitory” value (L-threonine deaminase) is listed as “+” and the “allosteric effector: inhibitory” value (glutamate dehydrogenase) is listed as “+”.

For `Nc1ncnc2c1ncn2[C@@H]1O[C@H](COP(=O)(O)OP(=O)(O)OP(=O)(O)O)[C@@H](O)[C@H]1O` [ATP, adenosine triphosphate], the “allosteric effector: inhibitory” value [3] is given as “+”, the “allosteric effector: inhibitory” value (phosphofructokinase) is given as “-” and the “allosteric effector: inhibitory” value (glutamate dehydrogenase) is given as “-”. The “allosteric effector: inhibitory” value (phosphorylase b) was “-”.

With `CC(=O)Nc1nnc(S(N)(=O)=O)s1` [Acetazolamide, 2-Acetylamino-1,3,4-thiadiazole-5-sulfonamide] the “inhibition of carbonic anhydrase (in words)” value (carbonic anhydrase [4]; Table 1) was “inhibited the enzyme carbonic anhydrase”, the “Hydrolysis Rate” value (carbonic anhydrase [4]; acetazolamide 0.144 μM with avidin 0.105 units/ml) was 0.089 ΔOD348 /min/ml and the “Hydrolysis Rate” value (carbonic anhydrase [4]; acetazolamide 0.144 μM, no avidin) was 0.088 ΔOD348 /min/ml. The “Hydrolysis Rate” value (carbonic anhydrase [4]; acetazolamide 0.288 μM, no avidin) was 0.047 ΔOD348 /min/ml, the “effect on the carbonic anhydrase reaction (in words)” value (carbonic anhydrase [5]) was “inhibited the carbonic anhydrase reaction” and the “Rate of Hydrolysis” value (carbonic anhydrase [5]; acetazolamide 0.216 μM with antibody to DNP 100 .infin.l/ml, mixture 3) was 0.091 Increase in Absorbance per min at 348 nm. The “Rate of Hydrolysis” value (carbonic anhydrase [5]; acetazolamide 0.216 μM, no antibody, mixture 5) was 0.088 Increase in Absorbance per min at 348 nm and the “effect of antibody to DNP on inhibition (in words)” value (carbonic anhydrase [5]) was “substantially unaffected by the presence of antibody to DNP”.

In the case of `Nc1ccn([C@@H]2O[C@H](COP(=O)(O)OP(=O)(O)OP(=O)(O)O)[C@@H](O)[C@H]2O)c(=O)n1` [CTP, cytosine triphosphate], the “allosteric effector: inhibitory” value [3] is listed as “-”.

With `NS(=O)(=O)c1nnc(NC(=O)CCCCCNc2ccc([N+](=O)[O-])cc2[N+](=O)[O-])s1` [DNP-Modulator Conjugate, 6-(2,4-Dinitroanilino)-N-(5-sulfonamide-1,3,4-thiadiazo-2-yl) caproamide] the “Rate of Hydrolysis” value (carbonic anhydrase [5]; DNP-modulator conjugate 0.278 μM with antibody to DNP 100 .infin.l/ml, mixture 2) was 0.108 Increase in Absorbance per min at 348 nm, the “Rate of Hydrolysis” value (carbonic anhydrase [5]; DNP-modulator conjugate 0.278 μM, N-DNP-6-aminocaproate 1.8 μM, antibody to DNP 100 .infin.l/ml, mixture 7) was 0.098 Increase in Absorbance per min at 348 nm and the “Rate of Hydrolysis” value (carbonic anhydrase [5]; DNP-modulator conjugate 0.278 μM, no antibody, mixture 4) was 0.074 Increase in Absorbance per min at 348 nm. The “effect on the carbonic anhydrase reaction (in words)” value (carbonic anhydrase [5]) was “inhibited the carbonic anhydrase reaction” and the “effect of antibody to DNP on inhibition (in words)” value (carbonic anhydrase [5]) was “degree of inhibition being decreased by the presence of antibody to DNP”.

For `Nc1nc2c(ncn2[C@@H]2O[C@H](COP(=O)(O)OP(=O)(O)OP(=O)(O)O)[C@@H](O)[C@H]2O)c(=O)[nH]1` [GTP, guanosine triphosphate], the “allosteric effector: inhibitory” value (glutamate dehydrogenase) is listed as “-”.

For `CC[C@H](C)[C@H](N)C(=O)O` [L-isoleucine], the “allosteric effector: inhibitory” value [6] is given as “-” and the “allosteric effector: inhibitory” value (homoserine dehydrogenase [7]) is given as “+”.

For `NCCCC[C@H](N)C(=O)O` [L-lysine], the “allosteric effector: inhibitory” value (lysine aspartokinase) is given as “-”.

For `CSCC[C@H](N)C(=O)O` [L-methionine], the “allosteric effector: inhibitory” value (homoserine dehydrogenase [7]) is given as “+”.

In the case of `C[C@@H](O)[C@H](N)C(=O)O` [L-threonine], the “allosteric effector: inhibitory” value (homoserine dehydrogenase [7]) is listed as “-”, the “allosteric effector: inhibitory” value (threonine aspartokinase) is listed as “-” and the “allosteric effector: inhibitory” value (homoserine dehydrogenase [8]) is listed as “-”.

In the case of `CC(C)[C@H](N)C(=O)O` [L-valine], the “allosteric effector: inhibitory” value [6] is listed as “+” and the “allosteric effector: inhibitory” value (acetolactate synthetase) is listed as “+”.

In the case of `O=C(O)CCCCCNc1ccc([N+](=O)[O-])cc1[N+](=O)[O-]` [N-DNP-6-aminocaproate], the “Rate of Hydrolysis” value (carbonic anhydrase [5]; N-DNP-6-aminocaproate 1.8 μM alone, no antibody, mixture 6) is reported as 0.154 Increase in Absorbance per min at 348 nm, the “effect on the carbonic anhydrase reaction (in words)” value (carbonic anhydrase [5]) is reported as “no substantial effect on the carbonic anhydrase reaction” and the “effect of DNP derivative on inhibition by DNP-modulator conjugate (in words)” value (carbonic anhydrase [5]; mixtures 2 and 7, antibody to DNP present) is reported as “increased inhibition of the carbonic anhydrase reaction by the DNP-modulator conjugate”.

For `CN(C(=O)Oc1cccc([N+](C)(C)C)c1)c1ccc(N)cc1` [N-methyl-N-(p-aminophenyl) carbamate ester of m-(trimethylamino) phenol], the “inhibition of acetylcholinesterase (in words)” value (acetylcholinesterase) is listed as “inhibited”.

For `O=C(O)CCCC[C@@H]1SC[C@@H]2NC(=O)N[C@@H]21` [biotin], the “relation of rate of hydrolysis to biotin (in words)” value (carbonic anhydrase [9]; mixtures 8, 10 and 11) was “inversely related to the amount present”.

For `O=C(O)CC(O)(CC(=O)O)C(=O)O` [citrate], the “allosteric effector: inhibitory” value [10] is given as “+”.

For `CC(=O)N[C@H]1[C@H]([C@H](O)[C@H](O)CO)OC(OP(=O)(O)OC[C@H]2O[C@@H](n3ccc(N)nc3=O)[C@H](O)[C@@H]2O)(C(=O)O)C[C@@H]1O` (stereo partly shown) [cytosine monophosphate (CMP)-N-acetyl-neuraminic acid], the “allosteric effector: inhibitory” value [11] is listed as “-”.

For `Nc1ccn([C@H]2C[C@H](O)[C@@H](COP(=O)(O)OP(=O)(O)O)O2)c(=O)n1` [dCDP, deoxycytosine diphosphate], the “allosteric effector: inhibitory” value (deoxythymidine kinase) is given as “+”.

In the case of `Nc1ccn([C@H]2C[C@H](O)[C@@H](COP(=O)(O)OP(=O)(O)OP(=O)(O)O)O2)c(=O)n1` [dCTP, deoxycytosine triphosphate], the “allosteric effector: inhibitory” value [12] is given as “+”.

In the case of `Cc1cn([C@H]2C[C@H](O)[C@@H](COP(=O)(O)OP(=O)(O)OP(=O)(O)O)O2)c(=O)[nH]c1=O` [dTTP, deoxythymidine triphosphate], the “allosteric effector: inhibitory” value [12] is given as “-” and the “allosteric effector: inhibitory” value (deoxythymidine kinase) is given as “-”.

In the case of `CC(C)C[C@H](N)C(=O)O` [leucine], the “allosteric effector: inhibitory” value (glutamate dehydrogenase) is listed as “+”.

In the case of `CSCC[C@H](N)C(=O)O` [methionine], the “allosteric effector: inhibitory” value (glutamate dehydrogenase) is given as “+”.

For `C[N+](C)(C)c1ccc(N)cc1` [p-aminophenyl trimethylammonium ion], the “inhibition of acetylcholinesterase (in words)” value (acetylcholinesterase) is listed as “inhibited”.

For `C[N+](C)(C)c1ccccc1` [phenyl trimethylammonium ion], the Ki (acetylcholinesterase; approximation, competitive inhibitor, read-out: inhibitor constant (Ki)) is listed as roughly 1000 nM.

For `NC(=O)C1=CN([C@@H]2O[C@H](COP(=O)(O)OP(=O)(O)OC[C@H]3O[C@@H](n4cnc5c(N)ncnc54)[C@H](O)[C@@H]3O)[C@@H](O)[C@H]2O)C=CC1` [reduced NAD], the “allosteric effector: inhibitory” value (glutamate dehydrogenase) is given as “-”.

In the case of `N[C@@H](Cc1cc(I)c(Oc2cc(I)c(O)c(I)c2)c(I)c1)C(=O)O` [thyroxine], the “allosteric effector: inhibitory” value (glutamate dehydrogenase) is listed as “-”.

In the case of `CC(=O)N[C@H]1[C@@H](OP(=O)(O)OP(=O)(O)OC[C@H]2O[C@@H](n3ccc(=O)[nH]c3=O)[C@H](O)[C@@H]2O)O[C@H](CO)[C@@H](O)[C@@H]1O` [uridine diphosphate (UDP)-N-acetyl-glucosamine], the “allosteric effector: inhibitory” value [13] is listed as “-”.

With “Avidin: Lyophilized avidin (Sigma Chemical Co., St. Louis, Mo.)” the “effect of avidin on inhibition by acetazolamide (in words)” value (carbonic anhydrase [4]; Table 1) was “no significant effect on such inhibition”, the “Hydrolysis Rate” value (carbonic anhydrase [4]; avidin 0.105 units/ml, acetazolamide 0.000 μM) was 0.106 ΔOD348 /min/ml and the “relation of rate of enzymatic hydrolysis to avidin (in words)” value (carbonic anhydrase [9]; constant level of biotin-modulator conjugate, mixtures 2-9) was “directly related to the amount of avidin present”.
